Data reported in US10604524B2, “Pyrropyrimidine compounds as MNKs inhibitors” (LIFEARC, priority 2015, dated 2020).

Columns and labels:
[1] = tested on: B16 melanoma lung metastases; conditions: in vivo; cited from earlier work
eIF4E phosphorylation = conditions: after oral administration, normal mouse tissues and xenografted tumors; cited from earlier work
HCT116 xenograft = HCT116 xenograft models; cited from earlier work
keratinocytes = conditions: cited from earlier work
[2] = tested on: monocytic cell line THP-1; conditions: cited from earlier work
Full-length human MNK2 = Full-length human MNK2 (Homo sapiens, UniProt Q9HBH9, T379D); assay: MNK2 biochemical IC50 assay (Caliper mobility shift)
[3] = tested on: phosphorylation of eIF4E at ser209 in MV4.11 cell line; assay: cells; assay type: cell-based; conditions: Homo sapiens; MV4.11 cells, 1.5 hr compound incubation, average of at least 2 independent experiments; read-out: plc50 elF4E (converted)
Protocol: MNK activity in cells was measured by monitoring the phosphorylation of eIF4E at ser209, the known endogenous substrate of MNK1/2, in cell lysates. […] The assay detection is based on the formation of sandwich antibody complexes coupled to donor and acceptor beads. Excitation at 680 nm causes the transfer of a singlet oxygen species between donor and acceptor beads when they are in close proximity by binding to the analyte […], which results in the emission of light at 520-620 nm.
Cells were then lysed and the Aphascreen Surefire protocol followed according to manufacturer's recommendations. 8 ul Acceptor beads (1:50 dilution in kit activation buffer) was added to lysate, shaken 150 rpm for 2 min and incubated for 1.5 hr at room temperature. 3 ul Donor beads (1:20 dilution in kit dilution buffer) were then added, shaken 150 rpm for 2 min and incubated for a further 1.5 hr at room temperature after which the plates were read on Pherastar FS using Alphascreen optic module.
Data were normalised relative to untreated DMSO only controls and curves repeated in duplicate within experiments. Data reported are averages of at least 2 independent experiments.

Full-length human MNK1 = Full-length human MNK1 (Homo sapiens, UniProt Q9BUB5, T385D); assay: MNK1 biochemical IC50 assay (Caliper mobility shift)
Chain of Full-length human MNK1 (Q9BUB5 1-424 isoform Q9BUB5-2 T344D): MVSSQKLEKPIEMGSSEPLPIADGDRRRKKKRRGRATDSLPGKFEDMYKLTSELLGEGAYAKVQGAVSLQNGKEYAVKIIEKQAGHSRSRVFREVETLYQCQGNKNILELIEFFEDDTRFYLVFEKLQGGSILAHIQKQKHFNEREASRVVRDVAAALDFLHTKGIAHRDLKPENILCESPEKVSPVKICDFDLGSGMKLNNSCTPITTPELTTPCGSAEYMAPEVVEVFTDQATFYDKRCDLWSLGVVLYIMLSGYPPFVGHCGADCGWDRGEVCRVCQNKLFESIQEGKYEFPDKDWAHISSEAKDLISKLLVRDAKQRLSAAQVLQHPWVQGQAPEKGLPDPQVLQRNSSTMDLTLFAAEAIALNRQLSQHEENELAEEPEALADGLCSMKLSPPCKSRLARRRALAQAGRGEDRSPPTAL

Chain of Full-length human MNK2 (Q9HBH9 whole entry T379D): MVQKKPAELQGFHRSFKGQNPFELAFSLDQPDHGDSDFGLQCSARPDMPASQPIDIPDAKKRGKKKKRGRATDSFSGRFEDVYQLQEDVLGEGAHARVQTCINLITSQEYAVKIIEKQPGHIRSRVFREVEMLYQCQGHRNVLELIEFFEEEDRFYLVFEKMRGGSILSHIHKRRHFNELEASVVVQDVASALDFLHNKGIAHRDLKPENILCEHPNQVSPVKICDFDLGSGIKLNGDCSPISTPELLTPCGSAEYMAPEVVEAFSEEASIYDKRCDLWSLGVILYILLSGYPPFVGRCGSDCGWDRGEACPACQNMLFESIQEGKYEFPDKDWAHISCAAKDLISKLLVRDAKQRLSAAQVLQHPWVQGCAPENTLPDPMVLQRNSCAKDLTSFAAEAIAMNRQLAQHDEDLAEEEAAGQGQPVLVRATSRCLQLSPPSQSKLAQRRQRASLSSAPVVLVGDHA

SMILES | IC50 (Full-length human MNK2) | IC50 [3] | IC50 (Full-length human MNK1) | further results
CC(=O)C1=C(O)C=C2Oc3c(C(N)=O)c(O)cc(O)c3[C@]2(C)C1=O [cercosporamide] |  |  |  | outgrowth of B16 melanoma lung metastases [1]: suppressing the outgrowth; time to effectively block eIF4E phosphorylation (eIF4E phosphorylation): ≤ 30 min; tumor growth (HCT116 xenograft): reducing tumor growth
Nc1ncnc2n[nH]c(Nc3ccc(F)cc3)c12 [CGP57380] |  |  |  | TNF-production (keratinocytes): reduced TNF-production; expression of IL-1β and IL-6 (keratinocytes): decreased expression; block of release of IL-1β and IL-8 induced by Shiga toxin [2]: 73-96%
CCn1ccc2ncnc(Nc3ccc(F)cc3OC(C)C)c21 [Example 1, 5-Ethyl-N-(4-fluoro-2-isopropoxy-phenyl)pyrrolo[3,2-d]pyrimidin-4-amine] | 126 nM | 50.1 nM | 200 nM | 
CC(C)Oc1cc(F)ccc1Nc1ncnc2ccn(C)c12 [Example 27, N-(4-fluoro-2-isopropoxy-phenyl)-5-methyl-pyrrolo[3,2-d]pyrimidin-4-amine] | 50.1 nM | 20 nM | 126 nM | 
Cc1ccc(Nc2ncnc3ccn(C)c23)c(OC(C)C)c1 [Example 8, N-(2-isopropoxy-4-methyl-phenyl)-5-methyl-pyrrolo[3,2-d]pyrimidin-4-amine] | 1260 nM | 501 nM | 3160 nM | 
Cn1ccc2ncnc(Nc3ccc(F)cc3O[C@H]3CC[C@H](O)CC3)c21 [Example 12, 4-[5-fluoro-2-[(5-methylpyrrolo[3,2-d]pyrimidin-4-yl)amino]phenoxy]cyclohexanol] | 79.4 nM | 15.8 nM | 200 nM | 
Cn1ccc2ncnc(Nc3ccc(F)cc3OC3CC3)c21 [Example 24, N-[2-(cyclopropoxy)-4-fluoro-phenyl]-5-methyl-pyrrolo[3,2-d]pyrimidin-4-amine] | 200 nM | 79.4 nM | 501 nM | 
CC(C)Oc1cc(F)ccc1Nc1ncnc2cc(C(=O)NCCCN(C)C)[nH]c12 [Example 44, N-[3-(dimethylamino)propyl]-4-(4-fluoro-2-isopropoxy-anilino)-5H-pyrrolo[3,2-d]pyrimidine-6-carboxamide] | 63.1 nM | 63.1 nM | 79.4 nM | 
CN(C)CCCNC(=O)c1cc2ncnc(N3CCc4cc(F)ccc43)c2[nH]1 [Example 39, N-[3-(dimethylamino)propyl]-4-(5-fluoroindolin-1-yl)-5H-pyrrolo[3,2-d]pyrimidine-6-carboxamide] | 12.6 nM | 25.1 nM | 12.6 nM | 
CC(CF)Oc1cc(F)ccc1Nc1ncnc2ccn(C)c12 (racemic) [Example 26, Racemic-N-[4-fluoro-2-(2-fluoro-1-methyl-ethoxy)phenyl]-5-methyl-pyrrolo[3,2-d]pyrimidin-4-amine] | 31.6 nM | 15.8 nM | 79.4 nM | 
COc1ncccc1Nc1ncnc2ccn(C)c12 [Example 35, N-(2-methoxy-3-pyridyl)-5-methyl-pyrrolo[3,2-d]pyrimidin-4-amine] | 1260 nM | 1000 nM | 1580 nM | 
CO[C@H]1CCC[C@@H](Oc2cc(F)ccc2Nc2ncnc3ccn(C)c23)C1 [Example 20, N-[4-fluoro-2-[(1R,3S)-3-methoxycyclohexoxy]phenyl]-5-methyl-pyrrolo[3,2-d]pyrimidin-4-amine] | 631 nM | 200 nM | 3160 nM | 
CC(C)Oc1cc(F)ccc1Nc1ncnc2cc[nH]c12 [Example 45, N-(4-fluoro-2-isopropoxy-phenyl)-5H-pyrrolo[3,2-d]pyrimidin-4-amine] | 79.4 nM | 501 nM | 126 nM | 
CC(C)Oc1ccccc1Nc1ncnc2ccn(C)c12 [Example 28, N-(2-isopropoxyphenyl)-5-methyl-pyrrolo[3,2-d]pyrimidin-4-amine] | 158 nM | 39.8 nM | 398 nM | 
